Assay results: patent US11918686B2, “Lipid bilayer coated mesoporous silica nanoparticles with a high loading capacity for one or more anticancer agents” (The Regents of the University of California, priority 2013, dated 2024)
Blank lines part the entries; values can stand above or below the molecule they belong to.

Legend:
[1] = in the clinic; cited from earlier work
[2] = test system: cytidine deaminase (CDA); BxPC3 cells; experiment: Protection against CDA-mediated GEM inactivation (MTS assay); type: cell-based, human; conditions: CDA 100 ng/mL, 1 h at 37° C., then BxPC3 cells 72 h
Description: We also assess the ability of the liposome to protect GEM against the effect of on cytidine deaminase (CDA), which plays a key role in drug inactivation (circulatory half-life of <8 minutes) in the clinic. Briefly, free GEM or GEM-laden liposomes were mixed with CDA enzyme at a concentration of 100 ng/mL in the incubation medium for 1 h at 37° C. The incubation media were then added to BxPC3 cells, which were cultured in 96 wells plate for 72 h. IC50 values were determined by the MTS assay for each group. The results were compared to the IC50 values for GEM or GEM-liposomes, not incubated with CDA. […] By contrast, free GEM was not protected against the effect of CDA.

PDAC = conditions: previously untreated PDAC patients with metastatic disease; cited from earlier work
[3] = Histology of kidney, liver and spleen; type: in vivo, mice; conditions: H&E, day 38
Description: (§1) (A) The animal treatments are described in the method section. BxPC3 cells were subcutaneously injected into mice 7 days before treatments (gray boxes). These animals received six i.v. injections (red boxes) every 3-6 days (green boxes) for 38 days as shown. The tumor inhibition effect of two-wave treatment was compared to saline, GEM-Lip alone, free GEM, empty liposome, and TGFβi-MSNP. Tumor size was accurately measured 1-2 times per week. Tumor weight was calculated according to the formula Tumor weight (mg)=(length in mm)×(width in mm)2/2. *P<0.05, compared to GEM-Lip group. (B) The animal weights were recorded at indicate time points and expressed for the experimental duration. *P<0.05, compared to saline; #P<0.05, compared to GEM-Lip. (C) Histological analyses of kidney sections were performed by UCLA DLAM diagnostic laboratory services. The sections were stained with hematoxylin/eosin (H&E) and examined by light microscopy. Representative images are shown. Higher magnification images were provided to shown the swelling and edema occur in Bowman's space, a morphological abnormality of GEM-induced renal toxicity. White arrows point to normal Bowman's space in glomerulus, and the black arrows point to the swelling and edema occur in Bowman's space.
Appropriate size sections of the tumor, liver, kidney, and spleen were fixed in 10% formalin and then embedded into paraffin. […]

Blood biochemistry = type: in vivo, mice; conditions: serum
Description: Following the animal experiments described above, the mice were sacrificed on the 38th day and serum was collected by centrifuging the whole blood at 5,000 rpm for 15 min. The biochemical parameters were assayed by UCLA Division of Laboratory Animal Medicine (DLAM) diagnostic laboratory services.

[4] = Animal body weight during treatment; type: in vivo, nude mice; conditions: compared to saline-treated BxPC3 tumor-bearing mice
Description: as §1, with “Higher magnification images were provided to shown the swelling and edema occur in Bowman's space, a morphological abnormality of GEM-induced renal toxicity. White arrows point to normal Bowman's space in glomerulus, and the black arrows point to the swelling and edema occur in Bowman's space.” left out
One week after tumor implantation, the BxPC-3 tumor-bearing mice were randomly divided into six groups. […] The body weight and tumor size were accurately recorded one to two times per week. Tumor weight was calculated according to the formula Tumor weight (mg)=(length in mm)×(width in mm)^2/2.

[5] = test system: PC coverage of ECs in BxPC3 xenograft; experiment: CD31/NG2 co-staining of ECs and PCs in BxPC3 xenograft; type: in vivo, nude mice; conditions: i.v., inhibitor dose 1 mg/kg, tumor collected 1-2 h post injection
Description: “T” indicates tumor cells. Arrows point out stroma. (B) Tumor-bearing animals (tumor size of 0.8˜1.0 cm in diameter) were divided into two groups and received i.v. injection of TGFβi-MSNP at inhibitor dose of 1 mg/kg (MSNP dose of 2 mg/kg). Saline and i.v. injection of free inhibitor at same dose were used as control. Tumor tissues were quickly collected 1-2 h post injection and OCT embedded for frozen section and dual color immunohistochemistry staining. The procedure of the staining was provided in the method section. This dual color staining that labels EC maker CD31 in green (FITC) and PC maker NG2 in red (Alexa fluor 594) were used to compare the effect of tumor blood vessel integrity and quantify the extent of PC/EC association. Zoom-in images were provided at higher magnification to show the extent of PC/EC association in each group. PC covered EC were quantified in three random fields in each group. *, P<0.05. […]
The tumor tissues were rapidly embedded by OCT reagent before sectioning to provide 4 m thick slices. […] The slides were visualized under a fluorescence microscope. The PC coverage was counted from three randomly selected fields.

[6] = test system: Smad2 phosphorylation in PCs; experiment: Smad2 activation assay (pSmad2 immunofluorescence); type: cell-based, human; conditions: PCs treated with 2 ng/mL TGF-β, inhibitor dose of 1 M
Description: (A) HDME cells (10^4 cells/mL) and HSM cells (5×10^3 cells/mL) were first stained by CellTracker™ Green CMFDA (Invitrogen, Grand Island, NY) and CellTracker™ Red CMTPX (Invitrogen, Grand Island, NY) according the manufacture's instruction 24 h before experiment. After live cell staining, ECs were treated with 2 ng/mL of TGF-β for 3 h and PCs were treated with […] or TGFβi-MSNP at inhibitor dose of 1 μM for 3 h. Subsequently, both cell types were co-cultured in Matrigel-coated 6-well plates for further incubation of 16 h at 37° C. PC/EC adhesions were quantitatively determined from five fields of three independent samples with the fluorescent microscope (Zeiss, Germany). *, P<0.05. (B) Use of immunofluorescence assay to determine the level of Smad2 phosphorylation. PCs were seeded in 8-well chamber slides. 16 h post cell seeding, PCs were treated with 2 ng/mL TGF-β for 3 h. Subsequently, the cells were treated with TGFβi-laden MSNP at the inhibitor dose of 1 M for 1-24 h. […] The slides were visualized under a fluorescence microscope. (C) The signal intensity of the green channel, reflecting activated Smad2 (pSmad2), was calculated by Image J software (version 1.37c, NIH). *, P<0.05.
Smad2 activation was determined using an immunofluorescent staining in 8-well chamber slides in which 4×10^4 PCs were cultured in each well containing 0.4 mL culture medium. […]

tumor = conditions: animal study; cited from earlier work

ALB (Blood biochemistry; day 38): 3.2 ± 0.1 g/dL
ALP (Blood biochemistry; day 38): 55.8 ± 9.8 U/L
BUN (Blood biochemistry; day 38): 38.0 ± 11.3 mg/dL
CA (Blood biochemistry; day 38): 9.4 ± 0.3 mg/dL
CHOL (Blood biochemistry; day 38): 58.7 ± 4.0 mg/dL
CK (Blood biochemistry; day 38): 512.0 ± 39.6 U/L
CO2 (Blood biochemistry; day 38): 20.5 ± 2.8 mEq/L
CREAT (Blood biochemistry; day 38): 0.2 ± 0.0 mg/dL
DBILI (Blood biochemistry; day 38): 0.7 ± 0.5 mg/dL
GGT (Blood biochemistry; day 38): 5.3 ± 1.155 U/L
GLU (Blood biochemistry; day 38): 128.3 ± 16.9 mg/dL
PHOS (Blood biochemistry; day 38): 6.1 ± 1 mg/dL
TBILI (Blood biochemistry; day 38): 0.5 ± 0.2 mg/dL
TP (Blood biochemistry; day 38): 5.1 ± 0.2 g/dL
BUN CR (Blood biochemistry; day 38, BUN-to-creatinine ratio): 191 ± 16
SMILES: Nc1ccn([C@@H]2O[C@H](CO)[C@@H](O)C2(F)F)c(=O)n1 [Free GEM, gemcitabine]
circulatory half-life [1]: < 8 min
protection of GEM against CDA [2]: not protected
median overall survival (PDAC): 6.7 months
kidney histology (glomerular swelling and edema of Bowman's space) [3]: intermediate nephrotoxicity
ALT (Blood biochemistry; day 38): 42.5 ± 33.8 U/L
AST (Blood biochemistry; day 38): 222 ± 178 U/L
body weight change [4]: reduced weight gain

SMILES: c1ccc(-c2[nH]ncc2-c2ccnc3ccccc23)nc1 [LY364947]
composite fluorescence staining of PC overlap with ECs in tumor [5]: slight but non-significant reduction
duration of inhibition of Smad2 phosphorylation [6]: 6 h

SMILES: CC(=O)O[C@H]1C(=O)[C@@]2(C)[C@H]([C@H](OC(=O)c3ccccc3)[C@]3(O)C[C@H](OC(=O)[C@H](O)[C@@H](NC(=O)c4ccccc4)c4ccccc4)C(C)=C1C3(C)C)[C@]1(OC(C)=O)CO[C@@H]1C[C@@H]2O [paclitaxel]
increase of GEM content in the tumor (tumor): 2.8 fold
